{"source": "paper PMC3436892", "about": "“Novel African Trypanocidal Agents: Membrane Rigidifying Peptides” (PLoS ONE, 2012)", "key": {"[1]": {"experiment": "Parallax analysis of tryptophan penetration depth", "assay_type": "physicochemical", "conditions": "for F1/F2 ± S.D.: ratio of tryptophan fluorescence intensity (357 nm) with shallow (6,7-dibromo-PC, F1) and deep (9,10-dibromo-PC, F2) quencher, 200 µg/ml liposomes, at least triplicate", "procedure": "The hydrocarbon penetration depth of tryptophans spaced throughout synthetic peptides corresponding to SHP-1 or SHP-3 (Table S1) was determined by parallax analysis with brominated phosphatidylcholine liposomes. Large unilamellar liposomes composed of egg phosphatidylcholine and 10 mol % 1-palmitoyl-2-(6,7-dibromo)stearoyl-sn-glycero-3-phosphocholine (shallow quencher) or 1-palmitoyl-2-(9,10-dibromo)stearoyl-sn-glycero-3-phosphocholine (deep quencher) were constructed by hydration of a thin dry lipid film with phosphate buffered saline. Resulting multilamellar liposomes were made unilameller via extrusion through polycarbonate filters with 0.1 µm pores. Peptides (500 nM) were incubated with 200 µg/ml liposomes in phosphate buffered saline at 37°C for 22 h. Tryptophan fluorescence at 357 nm was measured from at least triplicate trials in the PerkinElmer Life Sciences LS55 spectrofluorometer and an excitation wavelength of 280 nm for SHP-1 and 290 nm for SHP-2, 10 nm excitation and 9 nm emission slit widths. The distance of tryptophans from the bilayer center (ZCF) is calculated from the equation [12]: [drawing 1] Where LC1 is the distance from the center of the bilayer to the shallow quencher, in this case 10.8 Å for 6,7-dibromo-PC [25], F1 is the intensity of tryptophan in the presence of the shallow quencher and F2 is the tryptophan intensity in the presence of the deep quencher, C is the mole fraction of quencher divided by the area of individual phospholipid (70 Å^2), and L21 is the difference in the depth of the two quenchers (2.7 Å). The hydrocarbon insertion depth of tryptophans is then given by one half the bilayer thickness, 29 Å [25], minus ZCF."}, "Live BSF T. b. brucei": {"test_system": "Live BSF T. b. brucei", "experiment": "Trypanosome motility scoring by DIC microscopy", "assay_type": "cell-based, Trypanosoma brucei brucei", "procedure": "All images and videos were acquired with an Axio Observer Z1 equipped with an AxioCam MRm controlled by AxioVision 4.6 software. Videos were acquired with live cells at a density of 1×10^7 cells/mL in HMI 9 media with 10 % fetal bovine serum, incubated with 40 µM SHP at 37°C. Trypanosomes were visualized at magnification 63 × and videos were recorded with 100-ms acquisition times. The motility of BSF trypanosomes was scored directly or from video playback. Trypanosome motility was classified as normal, hyperactive or constricted as described previously. An example of a trypanosome scored as normal is shown in Movie S1. […] Data in figure 2D is shown as the average of at least duplicate trials with standard deviations."}, "BSF T. b. brucei [2]": {"test_system": "BSF T. b. brucei", "experiment": "2 h killing assay, BSF T. b. brucei", "assay_type": "cell-based, Trypanosoma brucei brucei", "conditions": "light microscopy (Fig. 1d, Figure S2a)"}, "BSF T. b. brucei [3]": {"test_system": "BSF T. b. brucei", "experiment": "Flow cytometry peptide binding", "assay_type": "cell-based, Trypanosoma brucei brucei", "conditions": "8 µM FITC-labeled peptide, 3×10^6 cells/ml, HMI 9 plus 10 % fetal bovine serum, 25 °C, 50,000 cells counted immediately, flow cytometry (Figure S1)", "procedure": "SHP binding to BSF T. b. brucei. FITC-labeled SHP-1 (blue ? ) and SHP-3 (green ? ) were assayed for binding to BSF T. b. brucei via flow cytometry (no peptide, red ? ) . Trypanosomes were adjusted to 3 × 10^6 cells/ml in HMI 9 media with 10 % fetal bovine serum, 8 µM FITC-SHP-1 or FITC-SHP-3 was added and 50,000 cells were immediately counted.\nFlow Cytometry – Peptide binding to BSF T. b. brucei was monitored by flow cytometry as described previously. Binding assays were performed with 3 × 10^6 cells/ml in HMI 9 plus 10 % fetal bovine serum at 25 °C. FITC-labeled SHP-1 or SHP-3 was added to a final concentration of 8 µM and 50,000 cells were immediately counted on a CyAn ADP flow cytometer (Dako). Data were analyzed with FlowJo software (TreeStar Inc.)."}, "[4]": {"experiment": "Calcein release (membrane interaction) assay", "assay_type": "physicochemical", "conditions": "unilamellar egg phosphatidylcholine liposomes with 30 mM calcein, PBS, 0.2-4 µM peptide, fluorescence 484/513 nm (Figure S2b, c)", "procedure": "Trypanosome killing and membrane interaction with SHP tryptophan variants. […] (b) The ability of SHP-1 tryptophan variants, 1 µM SHP-1ΔW1 (orange ? ), 1 µM SHP-1ΔW8 (green ? ), 0.2 µM SHP-1 (blue ? ) and 0.2 µM SHP-1ΔW18 (red ? ), and (c) SHP-3 tryptophan variants, 1 µM SHP-3ΔW1 (orange ? ), 1 µM SHP-3 (blue ? ), 1 µM SHP-3ΔW13 (red ? ) and 4 µM SHP-3ΔW20 (green ? ), to interact with lipid bilayers was determined by monitoring the release of entrapped calcein from unilamellar egg phosphatidylcholine liposomes.\nCalcein Release Assays – Membrane permeabilization assays were conducted as described in detail previously. Unilamellar liposomes were constructed as described above but with 30 mM calcein in 10 mM Hepes as the hydration buffer. Untrapped dye was removed by gel filtration (Sephacryl S-300 HR, GE Healthcare). Liposomes were diluted 1:1000 into phosphate buffered saline, and calcein fluorescence was monitored at 513 nm when excited at 484 nm. The percent calcein release was calculated relative to the 100% fluorescence intensity, achieved by the addition of 0.01% Triton X-100."}, "[5]": {"conditions": "500 nM peptide, PBS, 37°C, 22 h"}, "[6]": {"conditions": "40 µM SHP, 37°C, 1×10^7 cells/mL, HMI 9 with 10 % fetal bovine serum, DIC microscopy, at least duplicate (Fig. 2d)"}}}
{"sequence": "FHQIGAALLYFYGIILNSIW [SHP-3∆W20, SHP-3 tryptophan variant, Trp at position 20]", "values": [{"measurement": "F1/F2 ± S.D.", "setting": "[1]; [5]", "result": "1.1620 ± 0.3194"}]}
{"sequence": "WDLGAVISLLLGGRQLFA [SHP-1∆W1, SHP-1 tryptophan variant, Trp at position 1]", "values": [{"measurement": "F1/F2 ± S.D.", "setting": "[1]; [5]", "result": "0.8897 ± 0.1112"}]}
{"sequence": "SDLGAVISLLLGGRQLFW [SHP-1∆W18, SHP-1 tryptophan variant, Trp at position 18]", "values": [{"measurement": "F1/F2 ± S.D.", "setting": "[1]; [5]", "result": "0.9285 ± 0.1557"}]}
{"sequence": "SDLGAVIWLLLGGRQLFA [SHP-1∆W8, SHP-1 tryptophan variant, Trp at position 8]", "values": [{"measurement": "F1/F2 ± S.D.", "setting": "[1]; [5]", "result": "0.9767 ± 0.0717"}]}
{"sequence": "FHQIWAALLYFYGIILNSIY [SHP-3, non-trypanocidal small hydrophobic peptide derived from an apolipoprotein]", "values": [{"measurement": "constriction of motility following hyperactivation", "setting": "Live BSF T. b. brucei; [6]", "result": "subsequent constriction does not occur"}, {"measurement": "hyperactivation of motility", "setting": "Live BSF T. b. brucei; [6]", "result": "some hyperactivation"}, {"measurement": "motility approximately 30 sec after addition", "setting": "Live BSF T. b. brucei; 40 µM peptide, DIC video microscopy, representative cells (Movies S2, S3)", "result": "hyperactivated motility"}, {"measurement": "trypanocidal activity against BSF T. b. brucei", "setting": "BSF T. b. brucei [2]", "result": "no trypanocidal activity was detected"}, {"measurement": "binding to BSF T. brucei", "setting": "BSF T. b. brucei [3]", "result": "binding to BSF T. brucei"}, {"measurement": "insertion depth of native tryptophan, position 5", "setting": "[1]; 500 nM peptide, 200 µg/ml brominated egg PC liposomes, PBS, 37°C, 22 h", "result": "approximately 1.6 Å"}, {"measurement": "quenching of N-terminal tryptophan (position 1)", "setting": "[1]; Trp-substituted variant W1, suggests it does not intercalate into the hydrocarbon region", "result": "inefficiently quenched"}, {"measurement": "insertion depth of tryptophan at position 13", "setting": "[1]; Trp-substituted variant W13, 500 nM peptide, 200 µg/ml brominated egg PC liposomes, PBS, 37°C, 22 h", "result": "approximately 4.7 Å"}, {"measurement": "insertion depth of C-terminal tryptophan (position 20)", "setting": "[1]; Trp-substituted variant W20, 500 nM peptide, 200 µg/ml brominated egg PC liposomes, PBS, 37°C, 22 h", "result": "approximately 11.2 Å"}, {"measurement": "F1/F2 ± S.D.", "setting": "[1]; [5]", "result": "0.9202 ± 0.1260"}, {"measurement": "membrane interaction (release of entrapped calcein from liposomes)", "setting": "[4]", "result": "exhibit membrane interaction"}]}
{"sequence": "FHQIGAALLYFYWIILNSIY [SHP-3∆W13, SHP-3 tryptophan variant, Trp at position 13]", "values": [{"measurement": "F1/F2 ± S.D.", "setting": "[1]; [5]", "result": "0.9912 ± 0.0787"}]}
